Common to all, as to assay: inhibition of tumour cell growth, NCI panel, 48 h
Test [1] concerns T-47D breast.
The subject of test [2] is UO-31 renal.
Test [3] concerns SK-OV-3 ovarian.
For test [4], the system named is PC-3 prostate.
The test system of test [5] is IGROV1 ovarian.
Test [6] has as its system OVCAR-5 ovarian.
Test [7] deals with SW-620 colon.
Test [8] has as its system OVCAR-4 ovarian.

“And” between values parts separate entries of the source, which are not always exact repeats. Equal entries are not always repeated.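 Assay format: 96-well plates, 48-hour exposure. The concentration for 50% growth inhibition is given as GI50. TGI: concentration producing complete growth inhibition.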 Some results are limits rather than exact numbers.

For `S=C(S)NCCCn1ccnc1`, the TGI in test [1], in test [2], in test [3], in test [4], in test [5] and in test [6] was over 100 µM each time. Further, the TGI in test [7] and in test [8] was over 100 µM throughout.

In the case of `Cc1ccc2nc(NC(=O)CSC(=S)N3CCN(Cc4ccccc4)CC3)sc2c1`, the GI50 in test [1] was 72.3 µM; in test [2], over 79.5 µM; in test [3], over 100 µM; in test [4] it was over 100 µM; in test [5], over 100 µM; in test [6], over 100 µM. Moreover, the GI50 in test [7] and in test [8] was over 100 µM throughout. Besides, the TGI in test [1], in test [2], in test [3], in test [4], in test [5] and in test [6] was over 100 µM throughout. Besides, the TGI in test [7] and in test [8] was over 100 µM throughout.

Take `CN(C)c1ccc2c(SCC(=O)OCC(=O)[C@@]3(O)CC[C@H]4[C@@H]5CCC6=CC(=O)C=C[C@]6(C)[C@H]5C(=O)C[C@@]43C)c3ccc(N(C)C)cc3nc2c1`: the TGI in test [1] was over 100 µM; in test [2] it was 24.8 µM; in test [3], over 100 µM; in test [4], over 100 µM; in test [5], over 100 µM; in test [6], over 100 µM. In addition, the values for the TGI in test [7] and in test [8] were over 100 µM and over 72.1 µM, respectively.

Take `Cc1cc(C)c(S(=O)(=O)Oc2ccccc2[N+](=O)[O-])c(C)c1`: the GI50 in test [1] is 4.79 µM; in test [2] it was 3.27 µM; in test [3], 2.81 µM; in test [4], 3.31 µM; in test [5] it was 2.68 µM; in test [6], 5.67 µM. The GI50 in test [7] is 0.583 µM; in test [8] it was over 25.1 µM. The TGI is over 100 µM in test [1]; over 100 µM in test [2]; over 29.2 µM in test [3]; over 100 µM in test [4]; over 100 µM in test [5]; over 100 µM in test [6]. Moreover, the TGI in test [7] and in test [8] was over 100 µM in each case.

Regarding `O=C1c2ccccc2C(=O)c2c1c(NCCNCCO)c1cc[nH]c1c2NCCNCCO`, the GI50 is 11.8 µM in test [1]; 62.9 µM in test [2]; 2.85 µM in test [3]; 3.22 µM in test [4]; 9.23 µM in test [5]; 3.96 µM in test [6]. Further, the GI50 in test [7] was 3.28 µM; in test [8], 14.2 µM. For the same compound, the TGI in test [1] was over 46.5 µM; in test [2], over 100 µM; in test [3], 13.6 µM; in test [4] it was over 25.6 µM; in test [5] it was over 100 µM; in test [6], over 31.3 µM. Moreover, the TGI in test [7] worked out at 25.9 µM; in test [8], 45.2 µM.

For `CN([N-]C(=O)CC(=O)[N-]N(C)C(=S)c1ccccc1)C(=S)c1ccccc1.[Cu+2]`, the GI50 in test [1] is under 0.01 µM; in test [2], 0.0666 µM; in test [3], 0.0263 µM; in test [4], 0.0101 µM; in test [5] it was under 0.01 µM; in test [6], 0.0445 µM. Moreover, the GI50 in test [7] is 0.0206 µM; in test [8] it was under 0.01 µM. Also, the TGI in test [1] is 0.101 µM; in test [2], 0.231 µM; in test [3], 0.114 µM; in test [4], 0.0689 µM; in test [5], 0.0406 µM; in test [6], 0.175 µM. The TGI in test [7] came out at 0.108 µM; in test [8], 0.0619 µM.

Take `O=c1c2ccccc2c(C=NCCNCCO)c2oc3ccccc3n12`: the GI50 was 4.12 µM in test [1]; 9.58 µM in test [2]; 3.58 µM in test [3]; 13.9 µM in test [4]; 7.64 µM in test [5]; 15.7 µM in test [6]. Also, the GI50 in test [7] is 4.63 µM; in test [8], 16.6 µM. The TGI in test [1] was 17.9 µM; in test [2] it was 22.5 µM; in test [3] it was 15.9 µM; in test [4], 34.1 µM; in test [5] it was 24 µM; in test [6], 29.1 µM. Further, the TGI in test [7] came to 17 µM; in test [8], 36 µM.

`CCCCCCCCCCCCCCCC[N+](C)(C)C`: the GI50 is 0.272 µM and 2.56 µM in test [1]; 0.552 µM and 2.18 µM in test [2]; 0.314 µM and 2.12 µM in test [3]; 0.15 µM in test [4]; 0.154 µM in test [5]; 0.196 µM and 1.23 µM in test [6]. Moreover, the GI50 was 0.239 µM and 1.31 µM in test [7]; 0.232 µM and 1.52 µM in test [8]. Also, the TGI in test [1] was 1.2 µM and 9.59 µM; in test [2] it was 2.27 µM and 10.6 µM; in test [3], 1.35 µM and 6.2 µM; in test [4], 0.376 µM; in test [5] it was 0.359 µM; in test [6], 0.61 µM and 4.06 µM. Besides, the TGI in test [7] was 0.859 µM and 2.97 µM; in test [8], 1.03 µM and 5.95 µM.

In the case of `S=C1SC2(CCCCCC2)NC2=C1CCCCC2`, the TGI in test [1] was over 100 µM; in test [2] it was 60.1 µM; in test [3], over 100 µM; in test [4], over 100 µM; in test [5] it was over 100 µM; in test [6], over 100 µM. Moreover, the TGI in test [7] and in test [8] was over 100 µM throughout.

In the case of `Cc1cc2cc(Oc3ccnc(Nc4cccc(CS(=O)(=O)NCCN(C)C)c4)n3)ccc2[nH]1`, the GI50 in test [1] is 4.93 µM; in test [2] it was 3.14 µM; in test [3], 14.4 µM; in test [4], 3.38 µM; in test [5] it was 4.51 µM; in test [6], 5.29 µM. The GI50 is 7.99 µM in test [7] and 9.11 µM in test [8]. Besides, the TGI was 22.7 µM in test [1]; 14.9 µM in test [2]; 29.5 µM in test [3]; 13.2 µM in test [4]; 18.9 µM in test [5]; 19.5 µM in test [6]. For the same compound, the TGI is 23.5 µM in test [7] and 22.3 µM in test [8].

(Values after PubChem BioAssay (NCI).)
